Columns and labels:
Type in all cases: functional, cell-based
[1] = system: HL-60; test: Cytotoxicity against human HL60 cells by MTT assay
[2] = system: PANC-1; test: Cytotoxicity against human PANC1 cells by MTT assay
[3] = system: A549; test: Cytotoxicity against human A549 cells by MTT assay
[4] = system: SMMC-7721; test: Cytotoxicity against human SMMC7721 cells by MTT assay
[5] = system: SK-BR-3; test: Cytotoxicity against human SKBR3 cells by MTT assay

Measured: IC50

CC(=O)OC[C@@H]1[C@H]2C[C@H]2[C@]2(C)[C@@H]3C[C@@]4(O)C5=C(C6=C(C)C(=O)O[C@]6(O)[C@H](O)[C@@]5(C)[C@@H]5C[C@@H]54)[C@@]34OC(=O)C(CO)=C4C[C@@H]12 [CHLORAMULTIOL E]
> 10 µM: all assays above

C/C=C(\C)C(=O)OC[C@]1(O)[C@H]2C[C@H]2[C@]2(C)[C@@H]3C[C@@]4(O)C5=C(C6=C(C)C(=O)O[C@]6(O)[C@H](O)[C@@]5(C)[C@@H]5C[C@@H]54)[C@@]34OC(=O)C(CO)=C4C[C@@H]12 [CHLORAMULTILIDE D]
> 10 µM: all assays above

C/C=C(\C)C(=O)OCC1=C2C[C@H]3[C@H](O)[C@H]4C[C@H]4[C@]3(C)[C@@H]3C[C@@]4(O)C5=C(/C(=C(/C)C(=O)OC)C(=O)[C@H](O)[C@@]5(C)[C@@H]5C[C@@H]54)[C@]23OC1=O [SHIZUKAOL C]
> 10 µM: all assays above

CC1=C2C3=C4[C@](C)([C@@H]5C[C@@H]5[C@@]4(O)C[C@@H]4[C@]35OC(=O)C3=C5C[C@H]5[C@](O)(COC(=O)/C(C)=C/COC(=O)CCC(=O)OC3)[C@H]3C[C@H]3[C@]45C)[C@@H](O)[C@@]2(O)OC1=O [CHLORAMULTILIDE C]
> 10 µM: all assays above

CO[C@]12OC(=O)C(C)=C1C1=C3C(=C[C@@H]4[C@]15OC(=O)C1=C5C[C@H]5[C@](O)(COC(=O)/C(C)=C/COC(=O)CCC(=O)OC1)[C@H]1C[C@H]1[C@]45C)[C@H]1C[C@H]1[C@]3(C)[C@H]2O [CHLORAMULTIOL F]
> 10 µM: all assays above

COC(=O)/C(C)=C1\C(=O)[C@H](O)[C@]2(C)C3=C([C@H]4C[C@H]42)[C@H](O)[C@@H]2[C@]4(OC(=O)C5=C4C[C@H]4[C@](O)(COC(=O)/C(C)=C/COC(=O)CCC(=O)OC5)[C@H]5C[C@H]5[C@]24C)[C@H]31 [CHLORAMULTIOL A]
> 10 µM: all assays above

COC(=O)[C@]1(C)CC2=C3C=C(C(=O)[C@H](O)[C@@]3(C)[C@@H]3C[C@H]23)[C@](C)(C(=O)OC)CC2=C3C=C1C(=O)[C@H](O)[C@@]3(C)[C@@H]1C[C@H]21 [Cycloshizukaol A]
> 10 µM: all assays above

CC1=C2C3=C4[C@](C)([C@@H]5C[C@@H]5[C@@]4(O)C[C@@H]4[C@]35OC(=O)C(CO)=C5C[C@H]3[C@](O)(CO)[C@H]5C[C@H]5[C@]43C)[C@@H](O)[C@@]2(O)OC1=O [CHLORAMULTIOL B]
> 10 µM: all assays above

C/C=C(\C)C(=O)OC[C@]1(O)[C@H]2C[C@H]2[C@]2(C)[C@@H]3C[C@@]4(O)C5=C(C6=C(C)C(=O)O[C@]6(OC)[C@H](O)[C@@]5(C)[C@@H]5C[C@@H]54)[C@@]34OC(=O)C(CO)=C4C[C@@H]12 [CHLORAMULTIOL C]
> 10 µM: all assays above

COC(=O)/C(C)=C1/C(=O)[C@H](O)[C@]2(C)C3=C1[C@]14OC(=O)C(COC(C)=O)=C1C[C@H]1C[C@H]5C[C@H]5[C@]1(C)[C@@H]4C[C@]3(O)[C@H]1C[C@H]12 [SHIZUKAOL D]
> 10 µM: all assays above

C/C=C(\C)C(=O)OC[C@]1(O)[C@H]2C[C@H]2[C@]2(C)[C@@H]3C[C@@]4(O)C5=C(C6=C(C)C(=O)O[C@]6(O)C(=O)[C@@]5(C)[C@@H]5C[C@@H]54)[C@@]34OC(=O)C(CO)=C4C[C@@H]12 [CHLORAMULTIOL D]
> 10 µM: all assays above

CC1=C2C3=C4[C@@](C)(C(=O)[C@@]2(O)OC1=O)[C@@H]1C[C@@H]1[C@@]4(O)C[C@@H]1[C@]32OC(=O)C3=C2C[C@H]2[C@](O)(COC(=O)/C(C)=C/COC(=O)CCC(=O)OC3)[C@H]3C[C@H]3[C@]12C [SPICACHLORANTIN B]
> 10 µM: all assays above

— ChEMBL document CHEMBL1158587, “Chloramultiols A-F, lindenane-type sesquiterpenoid dimers from Chloranthus multistachys” (J Nat Prod, 2010)
